Tests used:
[1] = tested on: HAdV-4 (species E); assay: Infection assay (hexon staining), HAdV-4; assay type: cell-based, human adenovirus; conditions: 15 µM HD5 or HNP1, A549 cells, hexon staining at ~48 h, vs. no defensin
Procedure: (§1) To determine whether sensitivity to α-defensins is a general property of HAdVs, serotypes representative of HAdV species A–F were tested for infectivity in the presence of 15 µM HD5 or HNP1 (Figure 1). Wild type HAdVs rather than vectors were used for these studies, and infectivity was assessed by staining for hexon production. […] These studies indicate that sensitivity to α-defensins is species specific. In addition, particular HAdV serotypes are not equally sensitive to all defensins, indicating defensin sequence specificity as well.
(§2) Figure 1 Sensitivity to neutralization by alpha-defensins is AdV species specific. HAdVs were incubated with 15 µM HD5 (A) or HNP1 (B) and assessed for infectivity on A549 cells. Data are the mean of the percent infectivity compared to control cells infected with each virus in the absence of defensin for at least three independent experiments ± SD. The upper limit for quantification of this assay is 200%. […]
(§3) Prior to use in this assay, each virus stock was titrated on A549 cells. […] In parallel, wells were infected with two-fold serial dilutions of each virus to establish a standard curve for quantification with an upper limit of 200%. […] Total well fluorescence above background was quantified with ImageJ software. For each virus, samples were quantified by nonlinear regression against the standard curve using Prism software (GraphPad Software, Inc., La Jolla, CA).

[2] = tested on: HAdV-3; assay: Infection assay (hexon staining), HAdV-3; assay type: cell-based, human adenovirus; conditions: 15 µM HNP1, A549 cells, vs. no defensin
Procedure: as §1, §2, §3

[3] = tested on: HAdV-12; assay: Infection assay (hexon staining), HAdV-12; assay type: cell-based, human adenovirus; conditions: 15 µM HNP1, A549 cells, vs. no defensin
Procedure: as §1, §2, §3

[4] = tested on: HAdV-14; assay: Infection assay (hexon staining), HAdV-14; assay type: cell-based, human adenovirus; conditions: 15 µM HNP1, A549 cells, vs. no defensin
Procedure: as §1, §2, §3

[5] = tested on: HAdV-16; assay: Infection assay (hexon staining), HAdV-16; assay type: cell-based, human adenovirus; conditions: 15 µM HNP1, A549 cells, vs. no defensin
Procedure: as §1, §2, §3

[6] = tested on: Serotypes sensitive to HD5; assay: Infection assay (hexon staining), serotypes sensitive to HD5; assay type: cell-based, human adenovirus; conditions: 15 µM HNP1, A549 cells, vs. no defensin
Procedure: as §1, §2, §3

[7] = tested on: HAdV-5; conditions: low micromolar concentrations; ref [13]; cited from earlier work

HNP1: human alpha-defensin; synthetic, obtained from Peptides International
sensitivity to neutralization (infectivity) [1]: resistant | inhibition of infection [2]: only modest inhibition | inhibition of infection [3]: only modest inhibition | inhibition of infection [4]: only modest inhibition | inhibition of infection [5]: only modest inhibition | sensitivity to neutralization (infectivity) [6]: generally sensitive | inhibition of HAdV-5 infection [7]: significantly inhibit HAdV-5 infection at low micromolar concentrations
